Measurements as given in US20170197977A9, “COMPOSITIONS AND METHODS FOR TREATING NEURODEGENERATIVE DISEASE” (COGNITION THERAPEUTICS, INC., priority 2011, published 2017).
Where two headings read alike, the source gives them in different places.

Assays:
[1] = tested on: Abeta oligomer-induced membrane trafficking deficits; experiment: Membrane trafficking/exocytosis (MTT) assay in mature primary hippocampal neurons; type: cell-based, rat; settings: for Functional Neuronal Phenotype: Table 10B
Description: The present exocytosis assay was adapted for use with mature primary neuronal cultures grown for 3 weeks in vitro.
The methods used to generate the results were as follows in the Membrane Trafficking/Exocytosis (MTT) assay.
Primary hippocampal neurons from E18 Sprague-Dawley rat embryos were plated at optimized concentrations in 384 well plates in NB media (Invitrogen). Neurons were maintained in cultures for 3 weeks, with twice weekly feeding of NB media with N2 supplement (Invitrogen).
[…] MTT reagent (3-(4,5-dimethylthizaol-2yl)-2,5diphenyl tetrazolium bromide) (Roche Molecular Biochemicals) was reconstituted in phosphate buffered saline to 5 mg/mL. 10 μL of MTT labeling reagent is added to each well and incubated at 37° C. for 1 h, then imaged. Exocytosis was assessed by automated microscopy and image processing to quantify the amount of endocytosed and exocytosed formazan.
Each assay plate was formatted so that compounds are tested with and without Abeta oligomer on each plate.

[2] = tested on: Abeta oligomer-induced synapse loss; experiment: Synapse loss assay (synaptophysin puncta) in primary neurons; type: cell-based, rat; settings: for Block synapse loss: Table 10B; for Abeta oligomer-induced synapse loss: in words
Description: In this assay, Abeta oligomers were brought in contact with mature primary neurons in culture and their binding was determined by immunohistochemistry (anti-Abeta antibody) and quantified by image processing. The amount of Abeta in neuronal dendrites is assessed by counting the number of labeled puncta on the neuritis. […] This labeling is associated with synapses, co-localizing with the post-synaptic scaffold protein PSD-95 (Lacor et al., '04). […] The number of synapses can also be quantified in this assay by immunofluorochemistry. Similar procedures for binding assays can be found in the literature. […] Review.
Primary hippocampal neuronal culture was established as in the membrane trafficking assay above. […] Pretreatment with compounds to be tested lasted for 1 hr and addition of Abeta oligomers or no oligomer (vehicle alone) in a final concentration of 70 ul was followed by incubation for an additional 23 hrs.
The plates were then washed 3× with PBS for 5 min each. The plates were blocked at RT for 1 hr in 5% goat serum and 0.5% Triton X-100 in PBS. […] Primary antibodies were incubated overnight at 4° C. The plates were then washed 3× with PBS for 5 min each. […] Secondary antibodies were incubated at RT for 1 hr. The plates were washed once with PBS. DAPI (4′,6-diamidino-2-phenylindole, Invitrogen) was then applied at 0.03 ug/ul and incubated at RT for 5 min, then washed with PBS.
Images were captured and analyzed with the Cellomics VTI automated microscope platform, using the Neuronal Profiling algorithm. For statistical analysis, a Tukey-Kramer pair-wise comparison with unequal variance was used.

[3] = tested on: SKOV-3 human ovarian cancer cell line; experiment: MTS tumor cell viability assay; type: cell-based; settings: for Action: agonist/antagonist call relative to siramesine; for IC50: Tumor cell viability, 48 hrs
Description: The cytotoxicity of compounds shown below was determined using the CellTiter96 Aqueous One Solution Assay (Promega, Madison, Wis.). […] The plate was read at 490 nm in a Victor3 plate reader (PerkinElmer Life and Analytical Sciences, Shelton, Conn.). The EC^50 value, defined as the concentration of the sigma ligand required to inhibit cell viability by 50% relative to untreated cells, was determined from the dose response curve for each cell line.

[4] = tested on: caspase-3 activity in SKOV-3 human ovarian cancer cells; experiment: Caspase-3 activity assay in tumor cells; type: cell-based
[5] = tested on: caspase-3 activity in neurons; experiment: Caspase-3 activity assay in neurons; type: cell-based
Description: The activation of endogenous caspase-3 by sigma-2 receptor ligands was measured using the Caspase-3 Colorimetric Activity Assay Kit (Milipore, Billerica, Mass.) according to the manufacture's protocol. Briefly, MDA-MB 435 or MDA-MB23I cells were plated at 0.5×10^6 cells 100 mm dish. 24 hours after plating, sigma-2 ligands were added to the culture dishes to induce caspase 3 activation. The final concentration of the sigma-2 ligand was its EC50. 24 hours after treatment, cells were harvested, lysed in 300 uL of Cell Lysis Buffer, and centrifuged for 5 minutes at 10,000×g. Supernatant was collected and incubated with caspase-3 substrate, DEVD-pNA, for 2 hours at 37° C. […] Compounds IXa,IXb and II behaved like sigma-2 […] in both cancer cells and neurons.

neuronal cultures [6] = tested on: neuronal cultures
neuronal cultures [7] = experiment: Nuclear intensity / morphology in neuronal cultures; settings: 24 hours
sigma-2 receptor = experiment: Autoradiography, displacement of [3H]-RHM-1 in brain sections; type: binding; settings: 1 μM; monkey frontal cortex, monkey hippocampus, human temporal cortex
Description: Brain sections in 20 μM thickness from rats, rhesus monkeys and postmortem human brains were cut using with a Microm cryotome and mounted on superfrost plus glass slides (Fisher Scientific, Pittsburgh, Pa.)., and serial sections through the brain regions of cerebral cortex and hippocampus were used in this study.
Slides were dried and made conductive by coating with a copper foil tape on the free side and then placed in the gas chamber [mixture of argon and triethylamine (Sigma-Aldrich, USA)] of a gaseous detector, the Beta Imager 2000Z Digital Beta Imaging System (Biospace, France). […] [^3H]Microscale (American Radiolabeled Chemicals, Inc., St. Louis, Mo.) was counted at the same time as a reference for total radioactivity quantitative analysis, i.e., to convert the cpm/mm2 to nCi/mg tissue. Quantitative analysis was performed with the program Beta-Image Plus (BioSpace, France) for the anatomical regions of interest (ROI), i.e., to obtain the quantitative radioactivity uptake (cpm/nlln2) in the regions of cortex and hippocampus. The binding density was normalized to fmol/mg tissue based on the specific activities of the corresponding radioligands and calibration curve from the standard [^3H]Microscale.

Q: With COc1cc(CCC(C)NCc2ccc(C(F)(F)F)cc2)ccc1O (single isomer, unassigned; (+)) [(+) enantiomer of Cpd II] as the compound, how does the “Functional Neuronal Phenotype” value [1] read?
A: Its value is “Antagonist”.

Q: What about the EC50 ([1]; dose response of % vesicles against Abeta oligomer concentration, 0 uM of enantiomer (Abeta oligomer alone), read-out: EC50 against Abeta at Concentration 0 uM) of the same compound?
A: The EC50 was 1190 nM.

Q: What about the EC50 ([1]; read-out: EC50 against Abeta at Concentration 20 uM, dose response of % vesicles against Abeta oligomer concentration, 20 uM of enantiomer) of the same compound?
A: The EC50 was 1460 nM.

Q: What about the Block synapse loss ([2]; listed as II (+) isomer) of the same compound?
A: Its Block synapse loss is 47%.

Q: COc1cc(CCC(C)NCc2ccc(C(F)(F)F)cc2)ccc1O (single isomer, unassigned; (-)) [(−) enantiomer of Cpd II] was tested. Which EC50 ([1]; Rattus norvegicus, Hippocampal neuron, Table 4, read-out: EC50 in screening assay using single concentration of Abeta oligomer) did it give?
A: Its EC50 is 10900 nM.

Q: What about the EC50 ([1]; Rattus norvegicus, Hippocampal neuron, dose response of % vesicles against Abeta oligomer concentration, 0 uM of enantiomer (Abeta oligomer alone), read-out: EC50 against Abeta at Concentration 0 uM) of the same compound?
A: Its EC50 is 1050 nM.

Q: What about the EC50 ([1]; Rattus norvegicus, Hippocampal neuron, read-out: EC50 against Abeta at Concentration 20 uM, dose response of % vesicles against Abeta oligomer concentration, 20 uM of enantiomer) of the same compound?
A: Its EC50 is 2820 nM.

Q: What about the “Functional Neuronal Phenotype” value [1] of the same compound?
A: The value was “Antagonist”.

Q: What about the Block synapse loss ([2]; listed as II (−) isomer) of the same compound?
A: The Block synapse loss was 0%.

Q: CCCN(CCC)CCc1ccc(OC)c(OCCc2ccccc2)c1 [NE-100, reference compound] was tested. Which “Abeta oligomer-induced synapse loss” value [2] did it give?
A: The value was “completely eliminated synapse loss”.

Q: How did the Action [3] turn out when COc1cc2c(cc1OC)CN(CCCCNC(=O)c1cc(C)ccc1OC)CC2 [RHM-1, N-[4-(3,4-dihydro-6,7-dimethoxyisoquinolin-2(1H)-yl)butyl]-2-methoxy-5-methylbenzamide] was run?
A: Its Action is “Antagonist”.

Q: What about the “Block of caspase-3 activation caused by sigma-2 receptor agonist SV-119” value [4] of the same compound?
A: Its value is “do not block caspase-3 activation”.

Q: And the “Induction of caspase-3 activity” value [4]?
A: Its value is “did not induce caspase-3 activity”.

Q: And the “Induction of caspase-3 activity” value [5]?
A: Its value is “did not induce caspase-3 activity”.

Q: And the “Nuclear morphology / nuclear intensity compared to vehicle” value (neuronal cultures [6])?
A: The value was “did not decrease nuclear intensity”.

Q: With COc1ccc(C)cc1NC(=O)OC1CC2CCCC(C1)N2CCCCCCN (stereo not drawn) [SV-119] as the compound, how does the IC50 [3] read?
A: Its IC50 is 21700 ± 2900 nM.

Q: What about the Action [3] of the same compound?
A: Its Action is “Full agonist”.

Q: And the “Induction of caspase-3 activity” value [4]?
A: The value was “activate caspase-3”.

Q: What about the “Induction of caspase-3 activity” value [5] of the same compound?
A: Its value is “activate caspase-3”.

Q: What about the “Nuclear morphology / nuclear intensity compared to vehicle” value (neuronal cultures [7]) of the same compound?
A: Its value is “caused significant abnormal nuclear morphology”.

Q: What does the source list for Fc1ccc(-n2cc(CCCCN3CCC4(CC3)OCc3ccccc34)c3ccccc32)cc1 [Siramesine]?
A: Displacement of 18.4 nM [3H]-RHM-1 (sigma-2 receptor): partially displace; Action [3]: Full agonist; Induction of caspase-3 activity [4]: induced caspase-3 activity; Induction of caspase-3 activity [5]: induced; Nuclear morphology / nuclear intensity compared to vehicle (neuronal cultures [7]): caused significant abnormal nuclear morphology

Q: Which IC50 [3] does the source give for COc1ccc(C)cc1NC(=O)OC1CC2CCCC(C1)N2Cc1ccc(N(C)C)cc1 (stereo not drawn) [WC-26] here?
A: Its IC50 is 65600 ± 6300 nM.

Q: What about the Action [3] of the same compound?
A: Its Action is “Partial agonist”.

Q: What about the “Nuclear morphology / nuclear intensity compared to vehicle” value (neuronal cultures [7]) of the same compound?
A: Its value is “caused significant abnormal nuclear morphology”.

Q: How did the “Abeta oligomer-induced synapse loss” value [2] turn out when O=C(CCCN1CCC(O)(c2ccc(Cl)cc2)CC1)c1ccc(F)cc1 [haloperidol, reference compound] was run?
A: Its value is “completely eliminated synapse loss”.

Q: With “synthetic Abeta oligomer: Abeta 1-42 oligomers made according to published methods [reference compound]” as the compound, how does the EC50 ([1]; synthetic Abeta oligomer alone, read-out: EC50 of Abeta oligomer in membrane trafficking assay) read?
A: The EC50 was 820 nM.
